The source of these data is PubChem BioAssay AID179 (DTP/NCI, 2004).

The subject of the assay is CEM cells HIV-1 protection, formazan growth assay. The experiment in a line: NCI AIDS Antiviral Assay. To be noted: for IC50: measured here: growth of uninfected CEM cells. The method in brief: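 Human CEM cells, uninfected and HIV-1-infected, exposed to five drug concentrations; growth measured by soluble formazan assay and scored as percent protection from infection, with protecting compounds retested.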

Values joined by “and” are separate entries in the source; they are usually repeats but may differ in a detail not shown here. Identical values can stand only once. Active and inactive are the calls of the source.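 How the source made its calls: active means compounds giving half or more protection of infected cells from virus-caused growth loss, again on retest; inactive means the rest.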

Broadly, the EC50 is the concentration giving half of the maximal effect. By IC50 is commonly meant the midpoint of a concentration-inhibition curve. Low readings indicate greater potency, high ones weaker potency.

For the molecule `O=C(CN1CCOCC1)Nc1nc(-c2ccc(Cl)cc2)cs1`, the EC50 was over 107 µM and the IC50 was found to be 33.1 µM.

Regarding `CCOC(=O)c1ccc2c(=O)n3c(C(=O)OCC)ccc3c(=O)n12`, the EC50 was 162 µM and the IC50 is over 200 µM.

Take `O=C1/C(=C/c2cccc(Cl)c2)CCCc2ccccc21`: the EC50 is over 200 µM and the 50% inhibitory concentration (IC50) is 11.7 µM.

Take `COc1ccccc1/C=C1\C=Cc2ccccc21`: the EC50 is over 204 µM and the IC50 amounted to 31.6 µM.

Regarding `O=C(CP(=O)(O)O)NC(CC(=O)OCc1ccccc1)C(=O)OCc1ccccc1` (stereo not drawn), the EC50 is over 100 µM and the IC50 was over 100 µM.

With `C=C(CCCC(C)OCOCCOC)[Si](C)(C)C` (stereo not drawn), the EC50 was over 95.5 µM and the IC50 is over 95.5 µM.

`Cc1cc2c(cc1C(=O)CCC(=O)O)CC1(C2)Cc2cc(C)c(C(=O)CCC(=O)O)cc2C1`: the EC50 was over 200 µM and the IC50 was over 200 µM.

Regarding `CC1CC2OC(=O)C3CCCC(=C23)[C@@]12C[C@@H](c1ccoc1)OC2=O` (stereo partly drawn), the EC50 is over 550 µM and the IC50 came to 269 µM.

Consider `Cn1ncc(=O)[nH]c1=S`, for which the EC50 is over 200 µM and the IC50 is over 200 µM.

Regarding `COc1ccc(OC2OC(COC(c3ccccc3)(c3ccc(OC)cc3)c3ccc(OC)cc3)C(O)C(O)C2O)cc1` (stereo not drawn), the EC50 was over 200 µM and the IC50 is 8.91 µM.

Take `COC1O[C@H]2CCN(C(=O)OCc3ccccc3)[C@H]2[C@H]1OCc1ccccc1` (stereo partly drawn): the EC50 was over 35.5 µM and the IC50 is over 35.5 µM.

In the case of `CCC[CH2][Sn]1([CH2]CCC)[O]C(=O)c2ccc(N)cc2[O]1`, the outcome was inactive.

For `CCOC(=O)C(=O)Nc1nc2c(s1)C(=O)c1ccccc1C2=O`, the result was inactive.

As for `C=Cc1ccc(C)[n+](C[Si](C)(C)O[Si](C)(C)C)c1`, the EC50 was over 617 µM and the IC50 turned out to be 309 µM.

Consider `CC(=O)N(C(C)=O)c1c(C)cc(-c2ccccc2)oc1=O`, for which the EC50 is over 200 µM and the IC50 is over 200 µM.

Turning to `C=CCN(N=O)C(=O)N(CCC)CCCCC(NC(C)=O)C(=O)NCc1ccccc1` (stereo not drawn), the outcome was inactive.

Regarding `CC(=O)Nc1ccccc1S(=O)(=O)c1c(-c2c(C)c(Cl)c(C)c(Cl)c2C)noc1C`, the EC50 was over 200 µM and the IC50 is 87.1 µM.

`O=c1cn[nH]c2c(Cl)cccc12`: the EC50 is over 589 µM and the IC50 was found to be 355 µM.

On to `CCOC(=O)c1c(NC(=O)c2cccs2)sc2c1CCCC2`, for which the EC50 is over 151 µM and the IC50 is over 151 µM.

For `O=C(O)c1ccccc1/C=N\NC1=NCCCCN1`, the EC50 was over 200 µM and the IC50 was over 200 µM.

For the molecule `O=C(/C=C/c1ccc2c(c1)OCO2)NCc1ccco1`, the EC50 was over 200 µM and the IC50 is 117 µM.

`c1ccc(N=c2snc3scc(-c4ccccc4)n23)cc1`: the EC50 is over 23.4 µM and the IC50 is over 23.4 µM.

Turning to `CSc1nc(NC2OC(CO)C(O)C(O)C2O)cc(=O)[nH]1` (stereo not drawn), the result was inactive.

Consider `CC(=O)CC(=O)NC=O`, for which the EC50 is over 263 µM and the IC50 was over 263 µM.

`COc1ccc(OC(C)C(=O)O)c2c1CCCC2=O` (stereo not drawn): the outcome was inactive.

`O=C1C=CC(=O)c2c1ccc1c3ccccc3n(CCCCCCCCCCCCn3c4ccccc4c4ccc5c(c43)C(=O)C=CC5=O)c21`: the EC50 was over 100 µM and the IC50 turned out to be 72.4 µM.

Regarding `O=C(O)c1ccccc1/C=C1/Cc2ccc3c(c2C1=O)CCC3`, the result was inactive.

Turning to `CN(C)NC1=NS(=O)(=O)c2cc3c(=O)n(C)[nH]c3cc2S1`, the EC50 was over 200 µM and the IC50 was found to be 138 µM.

As for `CCCO/S(=N\S(=O)(=O)c1ccccc1)c1ccccc1[N+](=O)[O-]` (stereo not drawn), the EC50 was over 676 µM and the IC50 is over 676 µM.

As to `COc1ccc(N=Cc2cc(OC)c(OC)c(OC)c2)cc1`, the EC50 was over 33.1 µM and the IC50 was over 33.1 µM.

With `O=C1CN(CCN2CCCCC2)CC(=O)N2CCCCN12`, the EC50 was over 200 µM and the IC50 was over 200 µM.

`O=S(=O)(NC1OCCCC1I)c1ccccc1` (stereo not drawn): the EC50 is over 200 µM and the IC50 was over 200 µM.

As to `N/C(=N\N=C/c1ccc(OCc2ccccc2)cc1)NO`, the result was inactive.

Consider `O=S(=O)([O-])[O-].[OH3+].[OH3+].[OH3+].[Ru+2].c1ccccc1`, for which the EC50 is over 79.4 µM and the half-inhibitory concentration (IC50) was over 79.4 µM.

In the case of `O=[N+]([O-])c1ccc(OCCC[P+](c2ccccc2)(c2ccccc2)c2ccccc2)c(Cl)c1`, the EC50 is over 200 µM and the IC50 amounted to 1.7 µM.

As for `CC(=O)NNc1nc(C)c(C(/C=C/c2ccc(Cl)cc2)=N\NS(=O)(=O)c2ccc(C)cc2)s1`, the EC50 was over 2.88 µM and the IC50 was over 2.88 µM.

With `C=C1C2CC[C@H]3C45C=NC[C@](C)(CCC4)[C@H]5CCC3(C2)[C@H]1O`, the result was inactive.

For the molecule `COc1ccc2c(c1)C(N)=C(c1ccccc1OC)C2=O`, the EC50 is over 200 µM and the IC50 was found to be 120 µM.

On to `CCSc1cc(C(=O)OC)c2n(c1=O)CCCC2`, for which the EC50 was over 200 µM and the IC50 was over 200 µM.

For the molecule `O=[N+]([O-])C(=C1c2ccccc2-c2ccccc21)[N+](=O)[O-]`, the EC50 was over 135 µM and the IC50 was 18.2 µM.

As for `COc1ccccc1/C=C1\CCc2ccccc2C1=O`, the EC50 is over 27.5 µM and the IC50 amounted to 15.5 µM.

With `COc1cccc(NC(=O)CC(=O)NNCC(=O)Nc2nnc(-c3ccc(N(CCC#N)S(=O)(=O)c4ccccc4)cc3)s2)c1`, the EC50 was over 77.6 µM and the IC50 worked out at 66.1 µM.

As for `COc1cc(N=Nc2ccc3c(c2)Cc2ccccc2-3)c(OC)cc1N`, the EC50 is over 200 µM and the IC50 was 46.8 µM.

`NNC(=O)CC(=O)Nc1cccc(Cl)c1`: the EC50 is over 200 µM and the IC50 turned out to be 120 µM.

For the molecule `O=C(Nc1ccc(C2=NC3CCCCC3N2)cc1)c1ccc(C(=O)Nc2ccc(C3=NC4CCCCC4N3)cc2)cc1` (stereo not drawn), the EC50 was over 200 µM and the IC50 worked out at 9.33 µM.

For the molecule `COc1ccc(C(=O)C2COC(=O)C2=O)cc1OC` (stereo not drawn), the EC50 is over 200 µM and the IC50 is over 200 µM.

`COC1O[C@@H]2CCN3C(=O)[C@@H](OC(=O)c4ccc([N+](=O)[O-])cc4)[C@H]1C23` (stereo partly drawn): the EC50 is over 200 µM and the IC50 is over 200 µM.

Take `O=C(NCCc1c(-c2ccccc2)[nH]c2ccccc12)C(F)(F)C(F)(F)F`: the EC50 is over 200 µM and the IC50 was found to be 25.7 µM.

Consider `S=c1[nH]c(=S)c2nnn(-c3ccccc3)c2[nH]1`, for which the EC50 is over 138 µM and the IC50 turned out to be 126 µM.

Consider `Cc1n(-c2ccccc2)c2c([n+]1Cc1ccc([N+](=O)[O-])cc1)C(=O)c1ccccc1C2=O`, for which the EC50 was over 70.8 µM and the IC50 came to 3.63 µM.

Turning to `CC(C)C1(O)C(c2ccccc2)=C(c2ccccc2)C(c2ccccc2)=C1c1ccccc1`, the outcome was inactive.

Regarding `CC(=O)NC(Cc1cnc[nH]1)C(=O)N1CCCC1C(N)=O` (stereo not drawn), the EC50 is over 200 µM and the IC50 was over 200 µM.

For `C1=C2/CC[C@H](Sc3ccccc3)[C@H]2C2(CCCCC/1)OCCO2`, the EC50 was over 15.8 µM and the IC50 is over 15.8 µM.

Turning to `COc1ccc(C(C#N)NNc2nc(C)cc(=O)[nH]2)cc1OC` (stereo not drawn), the EC50 is over 794 µM and the IC50 came out at 234 µM.

For the molecule `COc1ccc(C2CC(=O)c3c(O)cc(O)cc3O2)cc1O` (stereo not drawn), the EC50 is over 832 µM and the IC50 came to 74.1 µM.

For the molecule `COc1ccc(N2C(=O)CC(=O)N(C(=O)CCCCCCCCC(=O)N3C(=O)CC(=O)N(c4ccc(OC)cc4)C3=S)C2=S)cc1`, the EC50 is over 200 µM and the IC50 is 102 µM.

Consider `Cc1oc2c(c1C)S(=O)(=O)C(C#N)=C(N(C)C)N2`, for which the EC50 is over 200 µM and the IC50 is over 200 µM.

For the molecule `CC12CCCCC1=[N+]([O-])C(C)(C)N2O` (stereo not drawn), the EC50 is over 200 µM and the IC50 is over 200 µM.

On to `CC1C(=O)NC(=O)NC1=O`, for which the EC50 is over 200 µM and the IC50 was over 200 µM.

On to `O=C(Nc1ccc2cc(S(=O)(=O)O)ccc2c1)c1ccc(N=Nc2cc(S(=O)(=O)O)c3ccccc3c2O)cc1`, for which the EC50 was over 50.1 µM and the IC50 was over 50.1 µM.

Take `COC1=C2C[C@](OC)(C#CC=CC#CC2O)CC1(C)C` (stereo partly drawn): the EC50 was over 200 µM and the IC50 is 97.7 µM.

On to `CC(=O)c1c(C)n(C)c2c1nnc1ccccc12`, for which the EC50 was over 41.7 µM and the IC50 came out at 30.2 µM.

On to `Cc1ccc(S(=O)(=O)NC(=O)Nc2sc(=S)c3c(c2C#N)CCCC3)cc1`, for which the EC50 is over 309 µM and the half-inhibitory concentration (IC50) was determined as 58.9 µM.

On to `COC(=O)C(Cn1cnc2c(Cl)nc(N)nc21)P(=O)(OC)OC` (stereo not drawn), for which the EC50 is over 692 µM and the IC50 turned out to be 37.2 µM.

`NC1=NC(c2ccccc2)CC(c2cc(Cl)ccc2O)=N1` (stereo not drawn): the EC50 is over 200 µM and the IC50 was 12.6 µM.

`Cc1c(O)c2ccccc2n(C)c1=O`: the EC50 was over 200 µM and the IC50 is over 200 µM.

Consider `N#CI1OC(=O)c2ccccc21`, for which the EC50 is over 200 µM and the IC50 was over 100 µM.

For `O=c1[nH]c2ccccc2n1C1CCN(CCOc2ccccc2)CC1`, the EC50 is over 200 µM and the IC50 was 23.4 µM.

With `CC(=O)c1ccc(-c2oc(-c3ccccc3)cc2-c2ccc3c(c2)OCO3)s1`, the EC50 is over 200 µM and the IC50 was determined as 22.9 µM.

Turning to `Cc1nc2nnc(CCCCCCCCc3nnc4nc(C)[nH]n34)n2[nH]1`, the EC50 was 135 µM and the IC50 turned out to be 174 µM.

Turning to `Cc1ccc(S(=O)(=O)OC2CSS(=O)CC2OS(=O)(=O)c2ccc(C)cc2)cc1` (stereo not drawn), the EC50 is over 200 µM and the IC50 was determined as 9.33 µM.

Consider `Cc1cc[c]([Sb](=[O])([OH])[c]2ccc(C)cc2)cc1`, for which the EC50 is over 5.01 µM and the IC50 came out at 0.851 µM.

Consider `O=C(/C=C\c1ccc(O)c(O)c1)O[C@@H]1C[C@](O)(C(=O)O)C[C@@H](O)[C@H]1O`, for which the EC50 is over 708 µM; the IC50 was 97.7 µM and 355 µM.

As for `COc1cccc(C=C2C(=O)OC(C)(C)OC2=O)c1`, the outcome was inactive.
